Test results from PubChem BioAssay AID256 (DTP/NCI, 2004).
“And” between values parts separate entries of the source, which are not always exact repeats. Equal values may be shown once. Inconclusive results and toxic doses are left out. How the source made its calls: active means survival T/C of 150% or more; inactive means T/C below 125% in these data.

Test system: CD2F1 mice, L1210 leukemia ip, survival T/C
Assay: NCI In Vivo Anticancer Drug Screen. Data for tumor model L1210 Leukemia (intraperitoneal) in CD2F1 (CDF1) mice
Conditions: higher = longer survival
How it was run: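 Implant tumor; dose compound or vehicle; measure endpoint in both groups; report treated divided by control.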

[1] = endpoint: mean survival time, dose: 100.0 mg/kg/injection, schedule: Q04DX003 (ip), vehicle: saline with Tween-80
[2] = endpoint: mean survival time, dose: 200.0 mg/kg/injection, schedule: Q04DX003 (ip), vehicle: saline with Tween-80
[3] = endpoint: mean survival time, dose: 400.0 mg/kg/injection, schedule: Q04DX003 (ip), vehicle: saline with Tween-80
[4] = endpoint: mean survival time, dose: 100.0 mg/kg/injection, schedule: Q01DX001 (ip), vehicle: saline with Tween-80
[5] = endpoint: mean survival time, dose: 100.0 mg/kg/injection, schedule: Q01DX009 (ip), vehicle: saline with Tween-80
[6] = endpoint: mean survival time, dose: 200.0 mg/kg/injection, schedule: Q01DX001 (ip), vehicle: saline with Tween-80
[7] = endpoint: mean survival time, dose: 200.0 mg/kg/injection, schedule: Q01DX009 (ip), vehicle: saline with Tween-80
[8] = endpoint: mean survival time, dose: 400.0 mg/kg/injection, schedule: Q01DX001 (ip), vehicle: saline with Tween-80
[9] = endpoint: mean survival time, dose: 400.0 mg/kg/injection, schedule: Q01DX009 (ip), vehicle: saline with Tween-80
[10] = endpoint: mean survival time, dose: 100.0 mg/kg/injection, schedule: Q04DX002 (ip), vehicle: saline with Tween-80
[11] = endpoint: mean survival time, dose: 200.0 mg/kg/injection, schedule: Q04DX002 (ip), vehicle: saline with Tween-80
[12] = endpoint: mean survival time, dose: 12.5 mg/kg/injection, schedule: Q01DX009 (ip), vehicle: saline with Tween-80
[13] = endpoint: mean survival time, dose: 25.0 mg/kg/injection, schedule: Q01DX009 (ip), vehicle: saline with Tween-80
[14] = endpoint: mean survival time, dose: 100.0 mg/kg/injection, schedule: Q01DX009 (ip), vehicle: saline
[15] = endpoint: mean survival time, dose: 12.5 mg/kg/injection, schedule: Q04DX003 (ip), vehicle: saline with Tween-80
[16] = endpoint: mean survival time, dose: 25.0 mg/kg/injection, schedule: Q04DX003 (ip), vehicle: saline with Tween-80

Measured: T/C

OC(Cc1cc(CC(O)(C(F)(F)F)C(F)(F)F)ncn1)(C(F)(F)F)C(F)(F)F
inactive: [1] 97 % of control | [2] 93 % of control | [3] 91 % of control

CC(=O)NC(C=O)C(O)C1OC(c2ccccc2)OCC1O (stereo not drawn)
inactive: [4] 97 % of control | [5] 95 % of control | [6] 97 % of control | [7] 98 % of control | [8] 94 % of control | [9] 92 % of control

COc1c(C)c2c(c(OC(C)=O)c1CC(=O)C(C)(O)CCC(=O)O)C(=O)OC2 (stereo not drawn)
inactive: [10] 103 % of control | [11] 96 % of control | endpoint: mean survival time, dose: 400.0 mg/kg/injection, schedule: Q04DX002 (ip), vehicle: saline with Tween-80 112 % of control

COCC/C(COC)=N/N
inactive: [4] 104 % of control | [5] 94 % of control | [6] 108 % of control | [8] 108 % of control

COc1ccc(C(=O)OCC(=O)O)cc1
inactive: endpoint: mean survival time, dose: 50.0 mg/kg/injection, schedule: Q01DX001 (ip), vehicle: saline with Tween-80 102 % of control | [4] 98 % of control | [6] 102 % of control

O=[N+]([O-])c1ccc2c(c1)CS(=O)(=O)C2
inactive: [5] 101 % of control | [1] 96 % of control | [7] 101 % of control | [2] 90 % of control | [9] 101 % of control | [3] 96 % of control

C(C#CCN1CCOCC1)#CCN1CCOCC1
inactive: endpoint: mean survival time, dose: 6.25 mg/kg/injection, schedule: Q01DX009 (ip), vehicle: Klucel (hydroxypropylcellulose) (HPC) 96 % of control | endpoint: mean survival time, dose: 12.5 mg/kg/injection, schedule: Q01DX009 (ip), vehicle: Klucel (hydroxypropylcellulose) (HPC) 91 % of control | [12] 95 % of control and 101 % of control | endpoint: mean survival time, dose: 25.0 mg/kg/injection, schedule: Q01DX009 (ip), vehicle: Klucel (hydroxypropylcellulose) (HPC) 100 % of control | [13] 95 % of control and 98 % of control | endpoint: mean survival time, dose: 50.0 mg/kg/injection, schedule: Q01DX009 (ip), vehicle: Klucel (hydroxypropylcellulose) (HPC) 105 % of control | endpoint: mean survival time, dose: 50.0 mg/kg/injection, schedule: Q01DX009 (ip), vehicle: saline with Tween-80 93 % of control and 95 % of control | endpoint: mean survival time, dose: 100.0 mg/kg/injection, schedule: Q01DX009 (ip), vehicle: Klucel (hydroxypropylcellulose) (HPC) 100 % of control | [5] 88 % of control and 90 % of control and 96 % of control | [1] 102 % of control | endpoint: mean survival time, dose: 200.0 mg/kg/injection, schedule: Q01DX009 (ip), vehicle: Klucel (hydroxypropylcellulose) (HPC) 91 % of control | [7] 95 % of control (2×) and 96 % of control | [2] 96 % of control | endpoint: mean survival time, dose: 400.0 mg/kg/injection, schedule: Q01DX009 (ip), vehicle: Klucel (hydroxypropylcellulose) (HPC) 97 % of control | [9] 95 % of control and 100 % of control and 101 % of control | [3] 102 % of control

O=CNc1ccccc1
inactive: [5] 97 % of control | [7] 105 % of control | [9] 115 % of control

N#Cc1cn(C2CCCCC2)c2ncccc12
inactive: endpoint: mean survival time, dose: 100.0 mg/kg/injection, schedule: Q04DX003 (ip), vehicle: saline 113 % of control | endpoint: mean survival time, dose: 200.0 mg/kg/injection, schedule: Q04DX003 (ip), vehicle: saline 97 % of control

O=C(O)C(CSC(c1ccccc1)(c1ccccc1)c1ccccc1)N=Cc1cccs1 (stereo not drawn)
inactive: endpoint: mean survival time, dose: 12.5 mg/kg/injection, schedule: Q01DX009 (ip), vehicle: saline 109 % of control | endpoint: mean survival time, dose: 12.5 mg/kg/injection, schedule: Q01DX009 (ip), vehicle: suspension in saline 113 % of control | endpoint: mean survival time, dose: 25.0 mg/kg/injection, schedule: Q01DX009 (ip), vehicle: suspension in saline 111 % of control | [7] 118 % of control | endpoint: mean survival time, dose: 200.0 mg/kg/injection, schedule: Q01DX009 (ip), vehicle: saline 90 % of control | endpoint: mean survival time, dose: 200.0 mg/kg/injection, schedule: Q01DX009 (ip), vehicle: suspension in saline 94 % of control
active: endpoint: mean survival time, dose: 66.0 mg/kg/injection, schedule: Q01DX009 (ip), vehicle: saline 163 % of control | [5] 172 % of control | [14] 163 % of control | endpoint: mean survival time, dose: 100.0 mg/kg/injection, schedule: Q01DX009 (ip), vehicle: suspension in saline 173 % of control

CCOC(=O)NC(=O)OCC
inactive: endpoint: mean survival time, dose: 100.0 mg/kg/injection, schedule: Q01DX001 (ip), vehicle: saline sonified 102 % of control | endpoint: mean survival time, dose: 200.0 mg/kg/injection, schedule: Q01DX001 (ip), vehicle: saline sonified 107 % of control | endpoint: mean survival time, dose: 400.0 mg/kg/injection, schedule: Q01DX001 (ip), vehicle: saline sonified 100 % of control

CNC(=O)O/N=C(\CN=[N+]=[N-])C(C)(C)C
inactive: endpoint: median survival time, dose: 0.25 mg/kg/injection, schedule: Q01DX009 (ip), vehicle: saline 102 % of control | endpoint: median survival time, dose: 0.5 mg/kg/injection, schedule: Q01DX009 (ip), vehicle: saline 96 % of control | endpoint: median survival time, dose: 1.0 mg/kg/injection, schedule: Q01DX009 (ip), vehicle: saline 103 % of control

N#CNC(N)=O
inactive: endpoint: mean survival time, dose: 100.0 mg/kg/injection, schedule: Q01DX009 (ip), vehicle: saline sonified 102 % of control | endpoint: mean survival time, dose: 200.0 mg/kg/injection, schedule: Q01DX009 (ip), vehicle: saline sonified 96 % of control | endpoint: mean survival time, dose: 400.0 mg/kg/injection, schedule: Q01DX009 (ip), vehicle: saline sonified 100 % of control

Cc1cc(-c2ccccc2)cc(=S)[nH]1
inactive: endpoint: mean survival time, dose: 100.0 mg/kg/injection, schedule: Q01DX001 (ip), vehicle: carboxymethylcellulose (CMC) 88 % of control | endpoint: mean survival time, dose: 200.0 mg/kg/injection, schedule: Q01DX001 (ip), vehicle: carboxymethylcellulose (CMC) 94 % of control | endpoint: mean survival time, dose: 400.0 mg/kg/injection, schedule: Q01DX001 (ip), vehicle: carboxymethylcellulose (CMC) 95 % of control

CC1(C)N=C(N)N=C(N)N1c1cccc(/C=C/c2ccc([N+](=O)[O-])cc2)c1
inactive: endpoint: mean survival time, dose: 100.0 mg/kg/injection, schedule: Q04DX002 (ip), vehicle: Klucel (hydroxypropylcellulose) (HPC) 103 % of control | endpoint: mean survival time, dose: 200.0 mg/kg/injection, schedule: Q04DX002 (ip), vehicle: Klucel (hydroxypropylcellulose) (HPC) 107 % of control | endpoint: mean survival time, dose: 400.0 mg/kg/injection, schedule: Q04DX002 (ip), vehicle: Klucel (hydroxypropylcellulose) (HPC) 95 % of control

NC(=S)N/N=C/c1c(O)ccc2ccccc12
inactive: [15] 98 % of control | [16] 95 % of control | endpoint: mean survival time, dose: 50.0 mg/kg/injection, schedule: Q04DX003 (ip), vehicle: saline with Tween-80 95 % of control

OC1CC2c3ccccc3C1c1cccc[n+]12 (stereo not drawn)
inactive: endpoint: mean survival time, dose: 100.0 mg/kg/injection, schedule: Q04DX003 (ip), vehicle: Klucel (hydroxypropylcellulose) (HPC) 94 % of control

N#CC(C#N)=NNc1ccc2cn[nH]c2c1
inactive: endpoint: median survival time, dose: 12.5 mg/kg/injection, schedule: Q01DX009 (ip), vehicle: Klucel (hydroxypropylcellulose) (HPC) 98 % of control | endpoint: median survival time, dose: 25.0 mg/kg/injection, schedule: Q01DX009 (ip), vehicle: Klucel (hydroxypropylcellulose) (HPC) 101 % of control | endpoint: median survival time, dose: 50.0 mg/kg/injection, schedule: Q01DX009 (ip), vehicle: Klucel (hydroxypropylcellulose) (HPC) 111 % of control | endpoint: median survival time, dose: 100.0 mg/kg/injection, schedule: Q01DX009 (ip), vehicle: Klucel (hydroxypropylcellulose) (HPC) 115 % of control

O=C([O][Sb]([O]C(=O)C(F)(F)F)([c]1ccccc1)([c]1ccccc1)[c]1ccccc1)C(F)(F)F
inactive: endpoint: mean survival time, dose: 50.0 mg/kg/injection, schedule: Q04DX002 (ip), vehicle: saline with Tween-80 93 % of control | [10] 93 % of control | [11] 97 % of control

C[n+]1cccc(CCc2ccc[n+](C)c2)c1
inactive: endpoint: mean survival time, dose: 50.0 mg/kg/injection, schedule: Q01DX009 (ip), vehicle: saline 92 % of control | [14] 104 % of control

CC1(C)CC=C(c2ccccc2)OC1c1ccccc1 (stereo not drawn)
inactive: endpoint: mean survival time, dose: 100.0 mg/kg/injection, schedule: Q04DX002 (ip), vehicle: other 98 % of control | endpoint: mean survival time, dose: 200.0 mg/kg/injection, schedule: Q04DX002 (ip), vehicle: other 94 % of control | endpoint: mean survival time, dose: 400.0 mg/kg/injection, schedule: Q04DX002 (ip), vehicle: other 102 % of control

NC(CCSCc1ccccc1)C(=O)O (stereo not drawn)
inactive: [5] 91 % of control | [1] 98 % of control | [7] 91 % of control | [2] 93 % of control | [9] 91 % of control | [3] 95 % of control

CCOC(=O)c1cnc(NN)nc1Nc1cc(Cl)cc(Cl)c1
inactive: endpoint: mean survival time, dose: 6.25 mg/kg/injection, schedule: Q01DX009 (ip), vehicle: saline with Tween-80 94 % of control | [12] 86 % of control | [15] 89 % of control | [13] 95 % of control | [16] 89 % of control
